Measurements taken from the supplement of paper PMC10702517.
± gives the standard deviation.

Experiment: chemical recovery by SPE of plasma after PDMS sampling; higher = better extraction
Conditions: pooled human plasma; extraction method: HLB SPE of plasma after PES; equilibration time (d): 1
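Note: over 400 spiked chemicals quantified by LC-HRMS or GC-HRMS via internal standard calibration, recovery relative to spike mix added to unspiked plasma extract to correct matrix effects.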

| SMILES | chemical recovery by SPE of plasma |
| --- | --- |
| OC(Cn1cncn1)(Cn1cncn1)c1ccc(F)cc1F [Fluconazole] | 42.2 ± 4.3% |
| c1ccc2c(c1)Cc1cc3ccccc3cc1-2 [Benzo(b)fluorene] | 1.71 ± 1.6% |
| Cn1ncc(N)c(Cl)c1=O [Methyldesphenylchloridazon] | 24.3 ± 8.3% |
| CCNc1nc(Cl)nc(NC(C)C)n1 [Atrazine] | 6.06 ± 0.65% |
| Cc1ccc(-c2cc(C(F)(F)F)nn2-c2ccc(S(N)(=O)=O)cc2)cc1 [Celecoxib] | 45.7 ± 5.5% |
| O=C(Nc1ccc(Cl)cc1)Nc1ccc(Cl)c(Cl)c1 [Triclocarban] | 29.8 ± 8.2% |
| NC(=O)N1c2ccccc2CC(O)c2ccccc21 (stereo not drawn) [10,11-Dihydro-10-hydroxycarbamazepine] | 59.8 ± 8.4% |
| Clc1cc(-c2cc(Cl)c(Cl)c(Cl)c2Cl)c(Cl)c(Cl)c1Cl [PCB194] | 3.6 ± 2.3% |
| COCN(COC)c1nc(N(COC)COC)nc(N(COC)COC)n1 [Hexa(methoxymethyl)melamine] | 7.64 ± 6.8% |
| C[C@]12CC(=O)[C@H]3[C@@H](CCC4=CC(=O)CC[C@@]43C)[C@@H]1CC[C@@H]2O [11-Ketotestosterone] | 34.3 ± 3.9% |

Same assay, conditions: pooled human plasma; extraction method: HLB SPE of plasma after PES; equilibration time (d): 3

| SMILES | chemical recovery by SPE of plasma |
| --- | --- |
| N#Cc1cc(Br)c(O)c(Br)c1 [Bromoxynil] | 62.9 ± 3.1% |
| CC(C)(C)Nc1nc(N)nc(Cl)n1 [Desethylterbutylazine] | 9.29 ± 1% |
| COC(=O)Nc1nc2ccccc2[nH]1 [Carbendazim] | 24.5 ± 2.5% |
| C[C@]12CC[C@H]3[C@@H](CCC4=CC(=O)CC[C@@]43C)[C@@H]1CC[C@@H]2O [Testosterone] | 14.5 ± 1.6% |
| C[C@]12C=CC(=O)C=C1CC[C@@H]1[C@@H]2C(=O)C[C@@]2(C)[C@H]1CC[C@]2(O)C(=O)CO [Prednisone] | 43.7 ± 5.1% |
| CNC(=O)CSP(=O)(OC)OC [Omethoate] | 13.5 ± 2.3% |
| CC/C(=N\OC/C=C/Cl)C1=C(O)CC(C2CCOCC2)CC1=O (stereo not drawn) [Tepraloxydim] | 48.3 ± 2.9% |
| CC(C)NCC(O)COc1ccc(COCCOC(C)C)cc1 (stereo not drawn) [Bisoprolol] | 34.4 ± 3.7% |
| Cc1ccc2[nH]nnc2c1 [5-Methyl-1H-benzotriazole] | 42.2 ± 5.6% |
| CN1CCN(C2=Nc3cc(Cl)ccc3Nc3ccccc32)CC1 [Clozapine] | 1.11 ± 0.26% |
| Cc1cccc(C)c1N(Cn1cccn1)C(=O)CCl [Metazachlor] | 1.57 ± 0.29% |
| c1ccc2[nH]nnc2c1 [1H-Benzotriazole] | 46.6 ± 3.2% |
| N#C/N=C1\SCCN1Cc1ccc(Cl)nc1 [Thiacloprid] | 33.4 ± 2.5% |
| CSc1nc(NC2CC2)nc(NC(C)(C)C)n1 [Irgarol] | 0.842 ± 0.15% |
| Cc1ccccc1N [o-Toluidine] | 1.92 ± 0.63% |
| Clc1ccc(COC(Cn2ccnc2)c2ccc(Cl)cc2Cl)c(Cl)c1 (stereo not drawn) [Miconazole] | 0.405 ± 0.14% |
| CCC(C)OC(=O)N1CCCCC1CCO (stereo not drawn) [Icaridin] | 2.67 ± 0.36% |
| CN(C)C(=O)Nc1ccc(Oc2ccc(Cl)cc2)cc1 [Chloroxuron] | 7.37 ± 0.66% |

| SMILES | chemical recovery by SPE of plasma |
| --- | --- |
| O=C1CC2(CCCCC2)CN1 [Gabapentin-Lactam] | 15.6 ± 1.9% |
| CCOc1nc2cccc(C(=O)O)c2n1Cc1ccc(-c2ccccc2-c2nnn[nH]2)cc1 [Candesartan] | 50.1 ± 3% |
| N#Cc1nn(-c2c(Cl)cc(C(F)(F)F)cc2Cl)c(N)c1C(F)(F)F [Fipronil desulfinyl] | 18 ± 1.9% |
| CCOCCN(C(=O)CCl)C(=C(C)C)c1ccccc1 [Pethoxamid] | 0.187 ± 0.32% |
| CCCOC(=O)c1ccc(O)cc1 [Propylparaben] | 43 ± 3.8% |
| CC(Cc1ccc(C(C)(C)C)cc1)CN1C[C@@H](C)O[C@@H](C)C1 (stereo partly drawn) [Fenpropimorph] | 0.066 ± 0.064% |
| CC(C)c1ccc(NC(=O)N(C)C)cc1 [Isoproturon] | 5.5 ± 0.88% |
| CN(C/C=C/C#CC(C)(C)C)Cc1cccc2ccccc12 [Terbinafine] | 0.2 ± 0.089% |
| OC(Cn1cncn1)(Cn1cncn1)c1ccc(F)cc1F [Fluconazole] | 42.2 ± 4.8% |
| c1ccc2c(c1)Cc1cc3ccccc3cc1-2 [Benzo(b)fluorene] | 2.82 ± 0.45% |
| Cn1ncc(N)c(Cl)c1=O [Methyldesphenylchloridazon] | 21.3 ± 7.1% |
| CCNc1nc(Cl)nc(NC(C)C)n1 [Atrazine] | 4.12 ± 0.74% |
| Cc1ccc(-c2cc(C(F)(F)F)nn2-c2ccc(S(N)(=O)=O)cc2)cc1 [Celecoxib] | 39.7 ± 1.8% |
| O=C(Nc1ccc(Cl)cc1)Nc1ccc(Cl)c(Cl)c1 [Triclocarban] | 28.2 ± 4.9% |
| NC(=O)N1c2ccccc2CC(O)c2ccccc21 (stereo not drawn) [10,11-Dihydro-10-hydroxycarbamazepine] | 60.8 ± 6% |
| Clc1cc(-c2cc(Cl)c(Cl)c(Cl)c2Cl)c(Cl)c(Cl)c1Cl [PCB194] | 5.05 ± 1.1% |
| COCN(COC)c1nc(N(COC)COC)nc(N(COC)COC)n1 [Hexa(methoxymethyl)melamine] | 3.37 ± 3% |
| C[C@]12CC(=O)[C@H]3[C@@H](CCC4=CC(=O)CC[C@@]43C)[C@@H]1CC[C@@H]2O [11-Ketotestosterone] | 30.6 ± 2.7% |

Same assay, conditions: pooled human plasma; extraction method: HLB SPE of plasma after PES; equilibration time (d): 6

| SMILES | chemical recovery by SPE of plasma |
| --- | --- |
| N#Cc1cc(Br)c(O)c(Br)c1 [Bromoxynil] | 58.6 ± 2.6% |
| CC(C)(C)Nc1nc(N)nc(Cl)n1 [Desethylterbutylazine] | 6.03 ± 0.45% |
| COC(=O)Nc1nc2ccccc2[nH]1 [Carbendazim] | 10.6 ± 9.6% |
| C[C@]12CC[C@H]3[C@@H](CCC4=CC(=O)CC[C@@]43C)[C@@H]1CC[C@@H]2O [Testosterone] | 8.83 ± 2.7% |
| CCc1cccc(C)c1N(C(=O)C(=O)O)C(C)COC (stereo not drawn) [Metolachlor OA] | 30.3 ± 2.7% |
| C[C@]12C=CC(=O)C=C1CC[C@@H]1[C@@H]2C(=O)C[C@@]2(C)[C@H]1CC[C@]2(O)C(=O)CO [Prednisone] | 41.1 ± 2.4% |
| CC(C)CC(C)(O)C#CC(C)(O)CC(C)C (stereo not drawn) [TMDD] | 38.6 ± 6% |
| CC/C(=N\OC/C=C/Cl)C1=C(O)CC(C2CCOCC2)CC1=O (stereo not drawn) [Tepraloxydim] | 41.9 ± 3.2% |
| CC(C)NCC(O)COc1ccc(COCCOC(C)C)cc1 (stereo not drawn) [Bisoprolol] | 31.1 ± 2.7% |
| Cc1ccc2[nH]nnc2c1 [5-Methyl-1H-benzotriazole] | 36 ± 2.7% |
| CN1CCN(C2=Nc3cc(Cl)ccc3Nc3ccccc32)CC1 [Clozapine] | 0.544 ± 0.065% |
| Cc1cccc(C)c1N(Cn1cccn1)C(=O)CCl [Metazachlor] | 0.82 ± 0.13% |
| c1ccc2[nH]nnc2c1 [1H-Benzotriazole] | 39.9 ± 2.1% |
| N#C/N=C1\SCCN1Cc1ccc(Cl)nc1 [Thiacloprid] | 25.1 ± 4.8% |
| CSc1nc(NC2CC2)nc(NC(C)(C)C)n1 [Irgarol] | 0.421 ± 0.023% |
| Cc1ccccc1N [o-Toluidine] | 1.2 ± 0.91% |
| Clc1ccc(COC(Cn2ccnc2)c2ccc(Cl)cc2Cl)c(Cl)c1 (stereo not drawn) [Miconazole] | 0.117 ± 0.082% |
| CCC(C)OC(=O)N1CCCCC1CCO (stereo not drawn) [Icaridin] | 1.58 ± 0.1% |
| CN(C)C(=O)Nc1ccc(Oc2ccc(Cl)cc2)cc1 [Chloroxuron] | 4.53 ± 0.44% |

| SMILES | chemical recovery by SPE of plasma |
| --- | --- |
| O=C1CC2(CCCCC2)CN1 [Gabapentin-Lactam] | 9.93 ± 1.6% |
| CCOc1nc2cccc(C(=O)O)c2n1Cc1ccc(-c2ccccc2-c2nnn[nH]2)cc1 [Candesartan] | 47.8 ± 4.2% |
| N#Cc1nn(-c2c(Cl)cc(C(F)(F)F)cc2Cl)c(N)c1C(F)(F)F [Fipronil desulfinyl] | 13.8 ± 0.85% |
| CCCOC(=O)c1ccc(O)cc1 [Propylparaben] | 34 ± 0.68% |
| CC(Cc1ccc(C(C)(C)C)cc1)CN1C[C@@H](C)O[C@@H](C)C1 (stereo partly drawn) [Fenpropimorph] | 0.0142 ± 0.017% |
| c1ccc2c(c1)-c1cccc3cccc-2c13 [Fluoranthene] | 3.75 ± 6.5% |
| CC(C)c1ccc(NC(=O)N(C)C)cc1 [Isoproturon] | 3.08 ± 0.39% |
| CN(C/C=C/C#CC(C)(C)C)Cc1cccc2ccccc12 [Terbinafine] | 0.0441 ± 0.0079% |
| OC(Cn1cncn1)(Cn1cncn1)c1ccc(F)cc1F [Fluconazole] | 36.6 ± 3.1% |
| c1ccc2c(c1)Cc1cc3ccccc3cc1-2 [Benzo(b)fluorene] | 2.41 ± 0.48% |
| Cn1ncc(N)c(Cl)c1=O [Methyldesphenylchloridazon] | 25 ± 8.3% |
| CCNc1nc(Cl)nc(NC(C)C)n1 [Atrazine] | 2.39 ± 0.2% |
| Cc1ccc(-c2cc(C(F)(F)F)nn2-c2ccc(S(N)(=O)=O)cc2)cc1 [Celecoxib] | 32.4 ± 1.7% |
| O=C(Nc1ccc(Cl)cc1)Nc1ccc(Cl)c(Cl)c1 [Triclocarban] | 24.3 ± 4% |
| NC(=O)N1c2ccccc2CC(O)c2ccccc21 (stereo not drawn) [10,11-Dihydro-10-hydroxycarbamazepine] | 55.6 ± 7.7% |
| Clc1cc(-c2cc(Cl)c(Cl)c(Cl)c2Cl)c(Cl)c(Cl)c1Cl [PCB194] | 2.4 ± 0.65% |
| COCN(COC)c1nc(N(COC)COC)nc(N(COC)COC)n1 [Hexa(methoxymethyl)melamine] | 0.745 ± 1% |
| C[C@]12CC(=O)[C@H]3[C@@H](CCC4=CC(=O)CC[C@@]43C)[C@@H]1CC[C@@H]2O [11-Ketotestosterone] | 21.9 ± 3.6% |
